This is an account of results in US20240043699A1, “DISPERSION AND COATINGS DERIVED THEREFROM” (UNIVERSITY OF MASSACHUSETTS, priority 2022, published 2024).

The data set in a line: Krafft Temperature from electrical conductivity in water at various temperatures. The note with it: electrical conductivity vs. temperature, sulfate. It counts as physicochemical. On the procedure: In some embodiments, the surfactants useful for the present disclosure can have a high Krafft temperature. For example, exemplary surfactants can have a Krafft temperature of at least 50° C. […] Krafft temperature can be determined by, for example, measuring electrical conductivity in water at various temperatures, where the Krafft temperature is taken to be the inflection point when conductivity is plotted against temperature.
Krafft Temperature, the temperature at which an ionic surfactant begins to form micelles in water, is marked by a significant increase in solubility and therefore electrical conductivity for ionic surfactants. Electrical conductivities of the HMW Surfactant species were measured in water at various temperatures to determine Krafft Temperature.

As for `CCCCCCCCCCCCOS(=O)(=O)[O-].[Na+]` [sodium dodecyl sulfate], the “Krafft Temperature” value is “roughly 15 °C”. Further, the “Krafft Temperature” value (listed as SDS) was found to be 15 °C.
